Measurements: PubChem BioAssay (NCI)
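Protocol summary: plate cells (96-well), add compound at 5 concentrations, incubate 48 h, interpolate endpoints linearly. TGI is the concentration that stops growth completely.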

Columns and labels:
Assay in all cases: inhibition of tumour cell growth, NCI panel, 48 h
NCI-H226 lung = tested on: NCI-H226 lung
MDA-N = tested on: MDA-N
CAKI-1 renal = tested on: CAKI-1 renal
NCI-H23 lung = tested on: NCI-H23 lung
OVCAR-8 ovarian = tested on: OVCAR-8 ovarian
SNB-19 CNS = tested on: SNB-19 CNS
SF-539 CNS = tested on: SF-539 CNS
KM12 colon = tested on: KM12 colon
SR leukemia = tested on: SR leukemia
SNB-75 CNS = tested on: SNB-75 CNS
OVCAR-5 ovarian = tested on: OVCAR-5 ovarian
OVCAR-4 ovarian = tested on: OVCAR-4 ovarian
TK-10 renal = tested on: TK-10 renal
HL-60(TB) leukemia = tested on: HL-60(TB) leukemia
DMS 114 small cell lung = tested on: DMS 114 small cell lung
UACC-257 melanoma = tested on: UACC-257 melanoma
NCI-H460 lung = tested on: NCI-H460 lung
MALME-3M melanoma = tested on: MALME-3M melanoma
HCT-15 colon = tested on: HCT-15 colon
CCRF-CEM leukemia = tested on: CCRF-CEM leukemia
A549 NSCLC = tested on: A549 NSCLC
SW-620 colon = tested on: SW-620 colon
UACC-62 melanoma = tested on: UACC-62 melanoma
HS 578T breast = tested on: HS 578T breast
SK-MEL-5 melanoma = tested on: SK-MEL-5 melanoma
UO-31 renal = tested on: UO-31 renal
NCI/ADR-RES ovarian = tested on: NCI/ADR-RES ovarian
HOP-18 NSCLC = tested on: HOP-18 NSCLC
RXF 393 renal = tested on: RXF 393 renal
MOLT-4 leukemia = tested on: MOLT-4 leukemia
COLO 205 colon = tested on: COLO 205 colon
IGROV1 ovarian = tested on: IGROV1 ovarian
HT29 colon = tested on: HT29 colon
LXFL 529 NSCLC = tested on: LXFL 529 NSCLC
SK-MEL-2 melanoma = tested on: SK-MEL-2 melanoma
SNB-78 CNS = tested on: SNB-78 CNS
SF-295 CNS = tested on: SF-295 CNS
HOP-92 NSCLC = tested on: HOP-92 NSCLC
A498 renal = tested on: A498 renal
LOX IMVI melanoma = tested on: LOX IMVI melanoma
SK-MEL-28 melanoma = tested on: SK-MEL-28 melanoma
HCT-116 colon = tested on: HCT-116 colon
DMS 273 small cell lung = tested on: DMS 273 small cell lung
RPMI-8226 leukemia = tested on: RPMI-8226 leukemia
KM20L2 colon = tested on: KM20L2 colon
MDA-MB-231 breast = tested on: MDA-MB-231 breast
HOP-62 NSCLC = tested on: HOP-62 NSCLC
SF-268 CNS = tested on: SF-268 CNS
MCF7 breast = tested on: MCF7 breast
M14 melanoma = tested on: M14 melanoma
SK-OV-3 ovarian = tested on: SK-OV-3 ovarian
PC-3 prostate = tested on: PC-3 prostate
U251 CNS = tested on: U251 CNS
T-47D breast = tested on: T-47D breast
DLD-1 colon = tested on: DLD-1 colon
SN12C renal = tested on: SN12C renal
K-562 leukemia = tested on: K-562 leukemia
BT-549 breast = tested on: BT-549 breast
OVCAR-3 ovarian = tested on: OVCAR-3 ovarian
NCI-H522 lung = tested on: NCI-H522 lung
786-0 renal = tested on: 786-0 renal
EKVX NSCLC = tested on: EKVX NSCLC
ACHN renal = tested on: ACHN renal
XF 498 CNS = tested on: XF 498 CNS
MDA-MB-435 = tested on: MDA-MB-435
M19-MEL melanoma = tested on: M19-MEL melanoma
HCC-2998 colon = tested on: HCC-2998 colon
DU-145 prostate = tested on: DU-145 prostate

COC1/C=C\C=C(/C)C(=O)NC2=CC(=O)C(NCCCl)=C(CC(C)CC(OC)C(O)C(C)/C=C(/C)C1OC(N)=O)C2=O (stereo not drawn)
TGI (NCI-H226 lung): 8.62 µM
TGI (MDA-N): 12.3 µM
TGI (CAKI-1 renal): 8.67 µM
TGI (NCI-H23 lung): 1.27 µM
TGI (OVCAR-8 ovarian): 10.5 µM
TGI (SNB-19 CNS): 13.6 µM
TGI (SF-539 CNS): 2.17 µM
TGI (KM12 colon): 2.01 µM
TGI (SR leukemia): 1.67 µM
TGI (SNB-75 CNS): 3.81 µM
TGI (OVCAR-5 ovarian): 11.7 µM
TGI (OVCAR-4 ovarian): 15 µM
TGI (TK-10 renal): 14.3 µM
TGI (HL-60(TB) leukemia): 3.23 µM
TGI (DMS 114 small cell lung): 1.6 µM
TGI (UACC-257 melanoma): 0.911 µM
TGI (NCI-H460 lung): 2.52 µM
TGI (MALME-3M melanoma): 1.48 µM
TGI (HCT-15 colon): 2.77 µM
TGI (CCRF-CEM leukemia): 21.9 µM
TGI (A549 NSCLC): 14.3 µM
TGI (SW-620 colon): 2.55 µM
TGI (UACC-62 melanoma): 1.33 µM
TGI (HS 578T breast): 58.4 µM
TGI (SK-MEL-5 melanoma): 3.11 µM
TGI (UO-31 renal): 10.6 µM
TGI (NCI/ADR-RES ovarian): 31.1 µM
TGI (HOP-18 NSCLC): 1.72 µM
TGI (RXF 393 renal): 1.2 µM
TGI (MOLT-4 leukemia): 5.13 µM
TGI (COLO 205 colon): 1.2 µM
TGI (IGROV1 ovarian): 13.6 µM
TGI (HT29 colon): 1.92 µM
TGI (LXFL 529 NSCLC): 13.9 µM
TGI (SK-MEL-2 melanoma): 2.15 µM
TGI (SNB-78 CNS): 19.2 µM
TGI (SF-295 CNS): 8.39 µM
TGI (HOP-92 NSCLC): 18.6 µM
TGI (A498 renal): 4.55 µM
TGI (LOX IMVI melanoma): 0.575 µM
TGI (SK-MEL-28 melanoma): 2.52 µM
TGI (HCT-116 colon): 2.88 µM
TGI (DMS 273 small cell lung): 1.1 µM
TGI (RPMI-8226 leukemia): 31.4 µM
TGI (KM20L2 colon): 0.385 µM
TGI (MDA-MB-231 breast): 20.4 µM
TGI (HOP-62 NSCLC): 5.91 µM
TGI (SF-268 CNS): 14 µM
TGI (MCF7 breast): 2.19 µM
TGI (M14 melanoma): 2.48 µM
TGI (SK-OV-3 ovarian): 2.11 µM
TGI (PC-3 prostate): 8.84 µM
TGI (U251 CNS): 4.14 µM
TGI (T-47D breast): 20.4 µM
TGI (DLD-1 colon): 11.6 µM
TGI (SN12C renal): 2.8 µM
TGI (K-562 leukemia): 13.5 µM
TGI (BT-549 breast): 2.85 µM
TGI (OVCAR-3 ovarian): 8.4 µM
TGI (NCI-H522 lung): 0.319 µM
TGI (786-0 renal): 9.05 µM
TGI (EKVX NSCLC): 22.7 µM
TGI (ACHN renal): 10.2 µM
TGI (XF 498 CNS): 8.85 µM
TGI (MDA-MB-435): 3.72 µM
TGI (M19-MEL melanoma): 1.57 µM
TGI (HCC-2998 colon): 1 µM
TGI (DU-145 prostate): 11.4 µM

CCCCCCC1CCC2CCCC(C)N12 (stereo not drawn)
TGI (NCI-H226 lung): > 100 µM
TGI (CAKI-1 renal): > 100 µM
TGI (NCI-H23 lung): 97.4 µM
TGI (OVCAR-8 ovarian): > 100 µM
TGI (SNB-19 CNS): > 100 µM
TGI (SF-539 CNS): > 100 µM
TGI (KM12 colon): > 100 µM
TGI (SR leukemia): 58.4 µM
TGI (SNB-75 CNS): > 100 µM
TGI (OVCAR-4 ovarian): > 100 µM
TGI (TK-10 renal): > 100 µM
TGI (HL-60(TB) leukemia): 38.2 µM
TGI (DMS 114 small cell lung): > 100 µM
TGI (UACC-257 melanoma): > 100 µM
TGI (NCI-H460 lung): 59.8 µM
TGI (MALME-3M melanoma): > 10 µM
TGI (HCT-15 colon): 89.6 µM
TGI (CCRF-CEM leukemia): 62 µM
TGI (A549 NSCLC): > 100 µM
TGI (SW-620 colon): 31.1 µM
TGI (UACC-62 melanoma): > 100 µM
TGI (SK-MEL-5 melanoma): > 100 µM
TGI (UO-31 renal): > 100 µM
TGI (HOP-18 NSCLC): > 100 µM
TGI (MOLT-4 leukemia): 47.1 µM
TGI (COLO 205 colon): 34.1 µM
TGI (HT29 colon): > 10 µM
TGI (LXFL 529 NSCLC): > 10 µM
TGI (SK-MEL-2 melanoma): 69.2 µM
TGI (SF-295 CNS): > 100 µM
TGI (HOP-92 NSCLC): > 100 µM
TGI (SK-MEL-28 melanoma): > 100 µM
TGI (HCT-116 colon): > 100 µM
TGI (DMS 273 small cell lung): > 100 µM
TGI (RPMI-8226 leukemia): 53.9 µM
TGI (KM20L2 colon): > 100 µM
TGI (HOP-62 NSCLC): > 100 µM
TGI (SF-268 CNS): > 100 µM
TGI (M14 melanoma): 76.9 µM
TGI (U251 CNS): > 100 µM
TGI (SN12C renal): > 100 µM
TGI (K-562 leukemia): 35.3 µM
TGI (OVCAR-3 ovarian): > 100 µM
TGI (NCI-H522 lung): > 100 µM
TGI (786-0 renal): > 100 µM
TGI (EKVX NSCLC): > 100 µM
TGI (ACHN renal): > 100 µM
TGI (XF 498 CNS): 36.1 µM
TGI (M19-MEL melanoma): > 100 µM
TGI (HCC-2998 colon): 45.6 µM
